One block for each compound: values may come before it.
Tests used:
[1] = Inhibition of IL-23 induced STAT phosphorylation in HEK293 cells by Western blotting analysis; type: cell-based; settings: Homo sapiens
[2] = Inhibition of IFNalpha induced STAT phosphorylation in HEK293 cells by Western blotting analysis; type: cell-based; settings: Homo sapiens
[3] = Inhibition of IFNalpha induced STAT phosphorylation in human whole blood by fluorescence based analysis; type: tissue-based
[4] = target: T1, Non-receptor tyrosine-protein kinase TYK2 (Homo sapiens, UniProt P29597); experiment: Inhibition of TYK2 JH2 in human TF-1 cells assessed as reduction of IFNalpha induced STAT1 phosphorylation; type: cell-based
T1 sequence (P29597 whole entry): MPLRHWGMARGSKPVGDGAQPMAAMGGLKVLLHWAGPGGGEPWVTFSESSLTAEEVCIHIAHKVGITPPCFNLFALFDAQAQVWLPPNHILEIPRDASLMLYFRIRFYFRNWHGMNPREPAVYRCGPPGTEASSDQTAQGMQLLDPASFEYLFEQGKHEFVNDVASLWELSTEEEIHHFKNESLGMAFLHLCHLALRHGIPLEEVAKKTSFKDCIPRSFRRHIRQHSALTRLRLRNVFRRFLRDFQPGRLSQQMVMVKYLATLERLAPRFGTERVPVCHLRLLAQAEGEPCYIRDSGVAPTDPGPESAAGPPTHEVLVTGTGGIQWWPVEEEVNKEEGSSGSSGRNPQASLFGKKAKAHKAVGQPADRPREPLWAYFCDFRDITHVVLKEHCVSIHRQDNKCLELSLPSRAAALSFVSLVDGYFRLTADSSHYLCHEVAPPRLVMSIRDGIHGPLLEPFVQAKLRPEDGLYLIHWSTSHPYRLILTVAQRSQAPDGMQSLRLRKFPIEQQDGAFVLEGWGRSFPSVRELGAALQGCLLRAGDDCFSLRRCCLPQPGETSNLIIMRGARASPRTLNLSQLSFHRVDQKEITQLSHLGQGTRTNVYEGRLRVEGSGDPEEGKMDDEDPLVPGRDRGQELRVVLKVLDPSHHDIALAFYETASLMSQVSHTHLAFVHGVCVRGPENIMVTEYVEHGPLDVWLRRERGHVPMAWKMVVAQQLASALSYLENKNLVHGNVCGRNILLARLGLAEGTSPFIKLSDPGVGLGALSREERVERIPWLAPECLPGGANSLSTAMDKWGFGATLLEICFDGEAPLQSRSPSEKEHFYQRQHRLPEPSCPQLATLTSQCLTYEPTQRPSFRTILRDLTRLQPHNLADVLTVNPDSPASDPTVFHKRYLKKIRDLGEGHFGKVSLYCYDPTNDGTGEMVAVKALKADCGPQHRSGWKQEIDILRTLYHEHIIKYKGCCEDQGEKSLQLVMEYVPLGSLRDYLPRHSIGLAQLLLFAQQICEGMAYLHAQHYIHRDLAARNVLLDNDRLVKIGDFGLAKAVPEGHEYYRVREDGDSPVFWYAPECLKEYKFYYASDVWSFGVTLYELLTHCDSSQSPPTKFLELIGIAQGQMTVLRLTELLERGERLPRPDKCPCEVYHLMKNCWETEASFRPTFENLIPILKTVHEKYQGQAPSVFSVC

[5] = target: T2, Tyrosine-protein kinase JAK2 (Homo sapiens, UniProt O60674); experiment: Inhibition of JAK2 JH1 (unknown origin) at 10 uM relative to control
T2 sequence (O60674 whole entry, the tested form may be a part): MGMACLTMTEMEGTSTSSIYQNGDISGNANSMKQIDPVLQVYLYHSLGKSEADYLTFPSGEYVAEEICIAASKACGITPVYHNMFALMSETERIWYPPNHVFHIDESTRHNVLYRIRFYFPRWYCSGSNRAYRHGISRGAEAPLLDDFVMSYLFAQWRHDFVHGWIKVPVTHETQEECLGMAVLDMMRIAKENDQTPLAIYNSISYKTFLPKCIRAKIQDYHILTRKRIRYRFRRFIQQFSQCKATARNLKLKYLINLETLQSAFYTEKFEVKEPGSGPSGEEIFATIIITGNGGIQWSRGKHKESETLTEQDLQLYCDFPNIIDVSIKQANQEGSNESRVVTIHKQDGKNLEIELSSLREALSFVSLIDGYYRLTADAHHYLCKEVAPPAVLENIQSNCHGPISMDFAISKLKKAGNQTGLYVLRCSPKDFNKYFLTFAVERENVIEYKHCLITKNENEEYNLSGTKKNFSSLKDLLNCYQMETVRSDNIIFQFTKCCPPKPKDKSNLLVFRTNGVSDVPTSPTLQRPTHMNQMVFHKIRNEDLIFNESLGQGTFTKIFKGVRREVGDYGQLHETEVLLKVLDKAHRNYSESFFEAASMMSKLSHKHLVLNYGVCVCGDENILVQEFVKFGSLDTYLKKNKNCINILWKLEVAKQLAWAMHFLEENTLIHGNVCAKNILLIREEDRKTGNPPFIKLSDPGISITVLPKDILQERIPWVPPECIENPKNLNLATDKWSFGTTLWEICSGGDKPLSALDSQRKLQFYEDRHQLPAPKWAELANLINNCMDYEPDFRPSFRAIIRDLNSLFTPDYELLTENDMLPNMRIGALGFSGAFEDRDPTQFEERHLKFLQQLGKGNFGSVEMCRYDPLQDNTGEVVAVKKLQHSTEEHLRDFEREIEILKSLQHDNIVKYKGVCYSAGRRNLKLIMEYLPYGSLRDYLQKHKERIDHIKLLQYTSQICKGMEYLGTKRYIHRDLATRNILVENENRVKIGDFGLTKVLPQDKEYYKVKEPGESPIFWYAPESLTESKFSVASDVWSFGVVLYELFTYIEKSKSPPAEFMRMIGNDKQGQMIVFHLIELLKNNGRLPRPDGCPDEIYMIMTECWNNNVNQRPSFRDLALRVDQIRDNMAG

[6] = target: T1, Non-receptor tyrosine-protein kinase TYK2; experiment: Binding affinity to human wild-type partial length TYK2 JH2 (G556 to D888 residues) expressed in mammalian expression system by KINOMEscan assay
[7] = target: T3, Tyrosine-protein kinase JAK1 (Homo sapiens, UniProt P23458); experiment: Binding affinity to JAK1 JH2 (unknown origin)
T3 sequence (P23458 whole entry): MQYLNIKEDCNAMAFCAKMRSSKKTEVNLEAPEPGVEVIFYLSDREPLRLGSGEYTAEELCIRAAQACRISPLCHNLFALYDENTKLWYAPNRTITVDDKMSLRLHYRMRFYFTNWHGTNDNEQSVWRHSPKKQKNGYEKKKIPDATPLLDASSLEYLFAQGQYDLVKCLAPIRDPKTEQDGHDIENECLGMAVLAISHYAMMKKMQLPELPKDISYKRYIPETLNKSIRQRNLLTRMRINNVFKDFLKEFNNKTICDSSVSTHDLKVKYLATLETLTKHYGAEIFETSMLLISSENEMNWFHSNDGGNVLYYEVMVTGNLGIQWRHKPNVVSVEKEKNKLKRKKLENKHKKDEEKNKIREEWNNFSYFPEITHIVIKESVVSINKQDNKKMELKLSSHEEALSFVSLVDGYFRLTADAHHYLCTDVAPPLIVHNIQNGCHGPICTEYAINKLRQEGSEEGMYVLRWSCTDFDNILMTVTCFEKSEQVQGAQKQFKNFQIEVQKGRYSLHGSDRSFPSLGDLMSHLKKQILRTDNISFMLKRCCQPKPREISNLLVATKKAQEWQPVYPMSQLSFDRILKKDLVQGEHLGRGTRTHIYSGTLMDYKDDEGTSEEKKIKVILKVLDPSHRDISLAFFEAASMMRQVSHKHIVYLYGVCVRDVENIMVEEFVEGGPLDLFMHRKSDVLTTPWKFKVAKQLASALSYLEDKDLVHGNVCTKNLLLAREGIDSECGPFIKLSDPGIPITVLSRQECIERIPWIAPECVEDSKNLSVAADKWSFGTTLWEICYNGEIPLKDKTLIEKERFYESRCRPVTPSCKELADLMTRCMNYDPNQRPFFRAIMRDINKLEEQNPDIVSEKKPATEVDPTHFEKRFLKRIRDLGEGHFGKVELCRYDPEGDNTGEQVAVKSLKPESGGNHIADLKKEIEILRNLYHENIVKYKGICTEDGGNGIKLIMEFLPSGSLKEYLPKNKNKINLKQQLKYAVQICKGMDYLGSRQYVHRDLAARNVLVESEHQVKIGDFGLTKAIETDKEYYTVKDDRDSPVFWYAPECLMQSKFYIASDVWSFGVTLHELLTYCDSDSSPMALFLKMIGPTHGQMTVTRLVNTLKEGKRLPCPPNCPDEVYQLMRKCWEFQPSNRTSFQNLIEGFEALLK

JAK2/TYK2 [8] = target: T4, JAK2/TYK2 (Homo sapiens, UniProt O60674+P29597); experiment: Inhibition of JAK2/TYK2 signal transduction pathway in human PBMC cells assessed as IL-12 induced p-STAT4 level incubated for 30 mins; type: cell-based
T4 sequence (O60674 whole entry): as the sequence (O60674 whole entry, the tested form may be a part) above
T4 sequence (P29597 whole entry): as the sequence (P29597 whole entry) above

JAK2/TYK2 [9] = target: T4, JAK2/TYK2; experiment: Inhibition of JAK2/TYK2 signal transduction pathway in human PBMC cells assessed as reduction in GM-CSF induced p-STAT5 level incubated for 20 mins; type: cell-based
[10] = target: T1, Non-receptor tyrosine-protein kinase TYK2; experiment: Inhibition of TYK2 JH1 (unknown origin) at 10 uM relative to control
[11] = target: T1, Non-receptor tyrosine-protein kinase TYK2; experiment: Inhibition of TYK2 signal transduction pathway in human PBMC cells assessed as reduction in GM-CSF induced p-STAT5 level; type: cell-based
[12] = target: T1, Non-receptor tyrosine-protein kinase TYK2; experiment: Binding affinity to TYK2 JH2 (unknown origin)
[13] = target: T1, Non-receptor tyrosine-protein kinase TYK2; experiment: Inhibition of TYK2 signal transduction pathway in human PBMC cells assessed as IL-2 induced p-STAT5 level; type: cell-based
[14] = target: T1, Non-receptor tyrosine-protein kinase TYK2; experiment: Inhibition of TYK2 signal transduction pathway in human PBMC cells assessed as IFNalpha induced p-STAT5 level; type: cell-based
[15] = target: T2, Tyrosine-protein kinase JAK2; experiment: Binding affinity to JAK2 JH1 (unknown origin)
[16] = target: T1, Non-receptor tyrosine-protein kinase TYK2; experiment: Inhibition of TYK2 signal transduction pathway in human TF-1 cells assessed as reduction in GM-CSF induced p-STAT5 level; type: cell-based
[17] = Half life in mouse at 10 mg/kg, po measured upto 24 hrs by LC-MS/MS analysis; type: ADME, organism-based; settings: in vivo
[18] = Cmax in mouse at 10 mg/kg, po measured upto 24 hrs by LC-MS/MS analysis; type: ADME, organism-based; design: time < 24 hrs, dose 10 mg/kg, route po; settings: in vivo
[19] = AUClast in mouse at 10 mg/kg, po measured upto 24 hrs by LC-MS/MS analysis; type: ADME, organism-based; design: dose 10 mg/kg, time < 24 hrs, route po; settings: in vivo
JAK2/TYK2 [20] = target: T4, JAK2/TYK2; experiment: Inhibition of JAK2/TYK2 signal transduction pathway in human NK92 cells assessed as IL-12 induced STAT4 phosphorylation; type: cell-based
[21] = target: T1, Non-receptor tyrosine-protein kinase TYK2; experiment: Inhibition of human recombinant TYK2 preincubated for 15 mins followed by substrate addition measured after 60 mins by HTRF assay
[22] = target: T5, Tyrosine-protein kinase JAK3 (Homo sapiens, UniProt P52333); experiment: Inhibition of human recombinant JAK3 preincubated for 15 mins followed by substrate addition measured after 60 mins by HTRF assay
T5 sequence (P52333 whole entry): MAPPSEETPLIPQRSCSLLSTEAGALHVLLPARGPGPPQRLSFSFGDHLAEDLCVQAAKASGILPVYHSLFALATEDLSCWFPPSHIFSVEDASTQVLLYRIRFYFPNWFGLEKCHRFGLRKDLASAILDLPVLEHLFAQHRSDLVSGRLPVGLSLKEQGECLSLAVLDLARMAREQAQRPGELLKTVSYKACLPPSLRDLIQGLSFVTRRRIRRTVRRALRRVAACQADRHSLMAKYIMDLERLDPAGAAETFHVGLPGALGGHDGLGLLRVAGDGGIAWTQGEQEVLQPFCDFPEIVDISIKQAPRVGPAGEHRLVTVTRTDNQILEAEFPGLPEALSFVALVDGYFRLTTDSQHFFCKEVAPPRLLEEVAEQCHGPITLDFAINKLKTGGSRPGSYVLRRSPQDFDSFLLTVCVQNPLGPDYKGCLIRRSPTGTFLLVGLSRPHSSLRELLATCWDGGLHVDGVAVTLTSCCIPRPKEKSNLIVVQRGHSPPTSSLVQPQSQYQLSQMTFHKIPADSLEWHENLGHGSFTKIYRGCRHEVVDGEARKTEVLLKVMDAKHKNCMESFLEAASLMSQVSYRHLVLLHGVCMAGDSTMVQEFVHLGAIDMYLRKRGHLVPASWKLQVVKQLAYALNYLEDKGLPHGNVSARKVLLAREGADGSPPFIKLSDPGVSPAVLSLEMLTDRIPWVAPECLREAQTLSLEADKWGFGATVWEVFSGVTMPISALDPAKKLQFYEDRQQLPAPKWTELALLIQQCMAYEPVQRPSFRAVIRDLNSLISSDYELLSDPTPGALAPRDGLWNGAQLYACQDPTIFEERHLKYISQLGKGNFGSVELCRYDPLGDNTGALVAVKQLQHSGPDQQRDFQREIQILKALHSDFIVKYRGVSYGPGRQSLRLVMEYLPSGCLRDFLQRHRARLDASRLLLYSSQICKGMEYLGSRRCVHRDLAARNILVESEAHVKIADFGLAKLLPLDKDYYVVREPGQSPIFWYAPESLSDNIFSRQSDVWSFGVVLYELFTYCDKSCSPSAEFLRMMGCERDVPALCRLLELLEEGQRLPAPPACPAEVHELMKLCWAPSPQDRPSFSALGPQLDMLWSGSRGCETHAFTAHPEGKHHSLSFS

[23] = target: T2, Tyrosine-protein kinase JAK2; experiment: Inhibition of human recombinant JAK2 preincubated for 15 mins followed by substrate addition measured after 60 mins by HTRF assay
JAK2/TYK2 [24] = target: T4, JAK2/TYK2; experiment: Inhibition of JAK2/TYK2 signal transduction pathway in human NK92 cells assessed as […] induced IFNgamma expression incubated for 24 hrs by ELISA assay; type: cell-based
[25] = target: T3, Tyrosine-protein kinase JAK1; experiment: Inhibition of human recombinant JAK1 preincubated for 15 mins followed by substrate addition measured after 60 mins by HTRF assay

- IC50 [1]: < 30 nM
- IC50 [2]: < 30 nM
SMILES: [2H]C([2H])([2H])NC(=O)c1nnc(NC(=O)C2CC2)cc1Nc1cccc2c1N(C)Cc1cn(C)nc1-2

- IC50 [3]: 40 nM
SMILES: [2H]C([2H])([2H])NC(=O)c1nnc(NC(=O)C2CC2)cc1Nc1cccc(-c2ncc(C(=O)N3CCN(C4CCCC4)CC3)s2)c1OC

- IC50 [3]: 47 nM
SMILES: [2H]C([2H])([2H])NC(=O)c1nnc(NC(=O)[C@H]2CC23CC3)cc1Nc1ncccc1S(C)(=O)=O

- IC50 [4]: 8 nM
SMILES: CNc1cc(Nc2ccccc2OC)nc2c(C(=O)N[C@@H]3CCN(C)C3=O)cnn12

- inhibition [5]: < 50%
- Kd [6]: < 0.2 nM
- Kd [7]: 5000 nM
- IC50 (JAK2/TYK2 [8]): < 500 nM
- IC50 (JAK2/TYK2 [9]): < 500 nM
- inhibition [10]: < 50%
SMILES: CNc1cc(Nc2cccn(-c3cnc(C(C)(C)O)cn3)c2=O)nc2c(C(=O)NC3CCC3)cnn12

- IC50 [11]: ≤ 1000 nM
- Kd [12]: ≤ 10 nM
- Kd [7]: ≤ 100 nM
- IC50 [13]: ≤ 100 nM
- IC50 [14]: < 100 nM
- Kd [15]: > 10000 nM
SMILES: [2H]C([2H])([2H])CC(=O)c1cnc(Nc2cccc(C#N)n2)cc1Nc1cccc(-c2ncn(C([2H])([2H])[2H])n2)c1OC

- Kd [12]: 0.002 nM
- IC50 [14]: 1.7 nM
SMILES: [2H]C([2H])([2H])n1nnc2c3cc(cc21)CO[C@@H]1CCC[C@H]1NC(=O)c1cnc2c(NC)cc(nn12)N3

- IC50 [16]: > 10000 nM
- half-life [17]: 2.07 h
- Cmax [18]: 8.73 ng/mL
- AUC(0-t) at 24 h [19]: 19.3 ng·h/mL
- IC50 (JAK2/TYK2 [20]): 1 nM
SMILES: COc1cc(Nc2cc(NC(C)=O)ncc2-c2ccc(C(C)(C)O)cn2)nc(S(C)(=O)=O)c1

- IC50 [3]: 9 nM
SMILES: [2H]C([2H])([2H])NC(=O)c1cnc(Nc2cc(C3CC3)ncn2)cc1Nc1ncccc1S(C)(=O)=O

- Kd [12]: 0.002 nM
- Kd [7]: 430 nM
- IC50 [13]: > 10000 nM
- IC50 [14]: 1.2 nM
- Kd [15]: 7300 nM
SMILES: CNc1cc2nn3c(cnc13)C(=O)N[C@H](C)COCc1ccc(OC)c(c1)N2

- inhibition [5]: < 50%
- Kd [6]: < 0.2 nM
- Kd [7]: 5000 nM
- IC50 (JAK2/TYK2 [8]): < 500 nM
- IC50 (JAK2/TYK2 [9]): < 500 nM
- inhibition [10]: < 50%
SMILES: CNc1cc(Nc2cccnc2OC)nc2c(C(=O)NCC3(CO)CC3)cnn12

- IC50 [11]: ≤ 1000 nM
- Kd [12]: ≤ 10 nM
- Kd [7]: ≤ 100 nM
- IC50 [13]: ≤ 100 nM
- IC50 [14]: < 100 nM
- Kd [15]: > 10000 nM
SMILES: [2H]C([2H])([2H])CC(=O)c1cnc(Nc2cccc(C#N)n2)cc1Nc1nccc(-c2ncn(C([2H])([2H])[2H])n2)c1OC

- IC50 [21]: 0.2 nM
- IC50 [22]: 11 nM
- IC50 [23]: 9 nM
- IC50 (JAK2/TYK2 [24]): 0.4 nM
- IC50 [25]: 37 nM
SMILES: NC(=O)c1nnc(-c2c(F)cccc2Cl)cc1Nc1ccc(N2CCOCC2)cc1

- IC50 [16]: > 10000 nM
- half-life [17]: 1.48 h
- Cmax [18]: 911 ng/mL
- AUC(0-t) at 24 h [19]: 2100 ng·h/mL
- IC50 (JAK2/TYK2 [20]): 1.82 nM
SMILES: COc1cc(Nc2cc(NC(C)=O)ncc2-c2ccc(F)cn2)nc(S(C)(=O)=O)c1

- IC50 [3]: 30 nM
SMILES: [2H]C([2H])([2H])NC(=O)c1nnc(NC(=O)C2CC2)cc1Nc1cccc(-c2noc(CN3CCN(S(C)(=O)=O)CC3)n2)c1OC

- Kd [6]: 0.009 nM
SMILES: [2H]C([2H])([2H])NC(=O)c1nnc(NC(=O)C2CC2)cc1Nc1cccc(-n2cc3c(n2)CN(S(C)(=N)=O)C3)c1OC (stereo unspecified)

- IC50 [1]: < 30 nM
- IC50 [2]: < 30 nM
SMILES: [2H]C([2H])([2H])NC(=O)c1nnc(NC(=O)C2CC2)cc1Nc1cccc2c1N(C)Cc1cccnc1-2

- IC50 [16]: 1820 nM
- half-life [17]: 3.01 h
- Cmax [18]: 2820 ng/mL
- AUC(0-t) at 24 h [19]: 16200 ng·h/mL
- IC50 (JAK2/TYK2 [20]): 0.053 nM
SMILES: COc1cc(Nc2cc(NC(C)=O)ncc2-c2ccc3c(n2)OCC(C)(C)O3)nc(S(C)(=O)=O)c1
